The values that follow come from patent US8134000B2, “Imidazolyl pyrimidine inhibitor compounds” (Gilead Sciences, Inc., priority 2008, dated 2012).

One experiment has as its target HDAC 1 (Homo sapiens, UniProt Q13547). Description: HDAC 1 inhibition assay with about 3 hours preincubation of enzyme and compound. Type of experiment: biochemical. The settings on record: read-out: HDAC 1 inhibitory activity (IC50 [μM]) (3-hour preincubation). As for the experimental part: The second assay is similar to the first assay described above, except that preincubation is carried out for about 3 hours after the enzyme is introduced. The test compound was suspended in, and titrated in DMSO. It was then spotted into a 384-well test plate. The enzyme, HDAC 1, was diluted in the same assay buffer as used in the previous assay and added to the pre-spotted compound. The enzyme/compound mix was incubated at room temperature for about 3 hours. The peptide substrate containing a fluorophore/quencher pair was diluted in the assay buffer and added to the compound/enzyme mix initiating the reaction. The reaction incubated at room temperature for 45 minutes. A concentrated developer solution was diluted in the assay buffer, and added to the reaction. The reaction was incubated at room temperature for about 15 minutes and relative fluorescence was read on an instrument reader.

Another experiment deals with CDK2 (Homo sapiens, UniProt P24941). Briefly: CDK2 inhibition (IC50). Type of experiment: biochemical.

Some results are limits rather than exact numbers.

The IC50 is the concentration needed to halve the response being measured.

Chain of HDAC 1 (Q13547 whole entry, species assumed): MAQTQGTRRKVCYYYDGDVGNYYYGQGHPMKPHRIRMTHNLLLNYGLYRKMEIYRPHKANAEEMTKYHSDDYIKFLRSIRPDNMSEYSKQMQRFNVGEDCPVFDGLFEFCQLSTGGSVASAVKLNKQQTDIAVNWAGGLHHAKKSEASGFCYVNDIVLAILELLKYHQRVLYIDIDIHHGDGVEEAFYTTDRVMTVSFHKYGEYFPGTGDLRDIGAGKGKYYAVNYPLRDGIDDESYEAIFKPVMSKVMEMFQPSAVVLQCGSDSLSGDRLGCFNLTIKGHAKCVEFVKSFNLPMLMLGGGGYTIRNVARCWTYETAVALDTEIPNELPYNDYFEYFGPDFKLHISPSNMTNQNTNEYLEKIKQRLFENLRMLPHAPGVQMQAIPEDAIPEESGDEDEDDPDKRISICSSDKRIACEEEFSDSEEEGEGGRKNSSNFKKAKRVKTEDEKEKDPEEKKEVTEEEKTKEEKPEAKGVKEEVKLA

With `Cc1ncc(-c2nc(Nc3ccc(C(=O)Nc4cc(-c5cccs5)ccc4N)s3)ncc2F)n1C(C)C` [Example 17, N-(2-amino-5-(thiophen-2-yl)phenyl)-5-(5-fluoro-4-(1-isopropyl-2-methylimidazol-5-yl)pyrimidin-2-ylamino)thiophene-2-carboxamide], the IC50 was 0.037 µM on HDAC 1 and 0.025 µM at CDK2.

As to `Cc1ncc(-c2ccnc(Nc3ccc(C(=O)Nc4cc(-c5cccs5)ccc4N)cc3)n2)n1C(C)C` [Example 3, N-(2-amino-5-thiophen-2-yl-phenyl)-4-[4-(1-isopropyl-2-methylimidazol-5-yl)-pyrimidin-2-ylamino]-benzamide], the half-inhibitory concentration (IC50) at HDAC 1 turned out to be 0.019 µM; on CDK2 it was 0.04 µM.

With `Cc1ncc(-c2ccnc(Nc3ccc(C(=O)Nc4cc(F)ccc4N)cc3)n2)n1C(C)C` [Example 4, N-(2-amino-5-fluoro-phenyl)-4-[4-(1-isopropyl-2-methylimidazol-5-yl)-pyrimidin-2-ylamino]-benzamide], the IC50 on HDAC 1 turned out to be 0.809 µM; on CDK2, 0.02 µM.

In the case of `Cc1ncc(-c2ncnc(Nc3ccc(C(=O)Nc4ccccc4N)cc3)n2)n1C(C)C` [Example 12, N-(2-aminophenyl)-4-(4-(1-isopropyl-2-methylimidazol-5-yl)-1,3,5-triazin-2ylamino)benzamide], the half-inhibitory concentration (IC50) on HDAC 1 turned out to be 0.153 µM; against CDK2, 0.34 µM.

Turning to `Cc1ncc(-c2ccnc(Nc3ccc(C(=O)NO)s3)n2)n1C(C)C` [Example 8, N-hydroxy-5-(4-(1-isopropyl-2-methylimidazol-5-yl)pyrimidin-2-ylamino)thiophene-2-carboxamide], the IC50 came out at 0.656 µM at HDAC 1 and 0.002 µM at CDK2.

Take `Cc1ncc(-c2ccnc(Nc3ncc(C(=O)Nc4cc(-c5ccc(F)cc5)ccc4N)s3)n2)n1C(C)C` [Example 15, N-(4-amino-4′-fluorobiphenyl-3-yl)-2-(4-(1-isopropyl-2-methylimidazol-5-yl)pyrimidin-2-ylamino)thiazole-5-carboxamide]: the IC50 on HDAC 1 was 0.049 µM; at CDK2, 1.04 µM.

With `Cc1ncc(-c2ccnc(Nc3ccc(C(=O)Nc4cc(-c5cccs5)ccc4N)s3)n2)n1C(C)C` [Example 10, N-(2-amino-5-(thiophen-2-yl)phenyl)-5-(4-(1-isopropyl-2-methylimidazol-5-yl)pyrimidin-2-ylamino)thiophene-2-carboxamide], the IC50 on HDAC 1 was determined as 0.034 µM; against CDK2, 0.026 µM.

With `Cc1ncc(-c2ccnc(Nc3ccc(C(=O)NO)cc3)n2)n1C(C)C` [Example 2, N-hydroxy-4-[4-(1-isopropyl-2-methylimidazol-5-yl)-pyrimidin-2-ylamino]-benzamide], the half-inhibitory concentration (IC50) on HDAC 1 is 0.241 µM; at CDK2, 0.01 µM.

In the case of `Cc1ncc(-c2ccnc(Nc3ccc(C(=O)Nc4cc(C(F)(F)F)ccc4N)cc3)n2)n1C(C)C` [Example 6, N-(2-amino-5-(trifluoromethyl)phenyl)-4-(4-(1-isopropyl-2-methylimidazol-5-yl)pyrimidin-2-ylamino)benzamide], the 50% inhibitory concentration (IC50) at HDAC 1 was more than 10 µM; on CDK2 it was 0.01 µM.

Regarding `Cc1ncc(-c2cnnc(Nc3ccc(C(=O)Nc4ccccc4N)cc3)n2)n1C(C)C` [Example 5, N-(2-aminophenyl)-4-(5-(1-isopropyl-2-methylimidazol-5-yl)-1,2,4-triazin-3-ylamino)benzamide], the IC50 was 0.423 µM at HDAC 1 and more than 40 µM at CDK2.

On to `Cc1ncc(-c2ccnc(Nc3ccc(C(=O)Nc4cc(-c5ccc(F)cc5)ccc4N)s3)n2)n1C(C)C` [Example 13, N-(4-amino-4′-fluorobiphenyl-3-yl)-5-(4-(1-isopropyl-2-methylimidazol-5-yl)pyrimidin-2-ylamino)thiophene-2-carboxamide], for which the half-maximal inhibitory concentration (IC50) at HDAC 1 stood at 0.054 µM; at CDK2, 0.065 µM.

With `Cc1ncc(-c2ccnc(Nc3ncc(C(=O)Nc4cc(-c5cccs5)ccc4N)s3)n2)n1C(C)C` [Example 16, N-(2-amino-5-(thiophen-2-yl)phenyl)-2-(4-(1-isopropyl-2-methylimidazol-5-yl)pyrimidin-2-ylamino)thiazole-5-carboxamide], the IC50 worked out at 0.032 µM at HDAC 1 and 2.15 µM against CDK2.

For the compound `Cc1ncc(-c2ccnc(Nc3ccc(C(=O)Nc4ccccc4N)cc3)n2)n1C(C)C` [Example 1, N-(2-amino-phenyl)-4-[4-(1-isopropyl-2-methylimidazol-5-yl)-pyrimidin-2-ylamino]-benzamide], the 50% inhibitory concentration (IC50) at HDAC 1 turned out to be 0.273 µM; against CDK2 it was 0.03 µM.

For the compound `Cc1ncc(-c2ccnc(Nc3ncc(C(=O)Nc4ccccc4N)s3)n2)n1C(C)C` [Example 18, N-(2-aminophenyl)-2-(4-(1-isopropyl-2-methylimidazol-5-yl)pyrimidin-2-ylamino)thiazole-5-carboxamide], the IC50 stood at 0.41 µM on HDAC 1 and 2.1 µM at CDK2.

Turning to `Cc1ncc(-c2ccnc(Nc3ccc(C(=O)Nc4cc(-c5ccc(F)cc5)ccc4N)cc3)n2)n1C(C)C` [Example 9, N-(4-amino-4′-fluorobiphenyl-3-yl)-4-(4-(1-isopropyl-2-methylimidazol-5-yl)pyrimidin-2-ylamino)benzamide], the IC50 on HDAC 1 stood at 0.04 µM; against CDK2, 0.027 µM.

For `Cc1cc(C(=O)Nc2cc(-c3ccc(F)cc3)ccc2N)sc1Nc1nccc(-c2cnc(C)n2C(C)C)n1` [Example 14, N-(4-amino-4′-fluorobiphenyl-3-yl)-5-(4-(1-isopropyl-2-methylimidazol-5-yl)pyrimidin-2-ylamino)-4-methylthiophene-2-carboxamide], the half-maximal inhibitory concentration (IC50) on HDAC 1 stood at 0.028 µM; against CDK2, 0.99 µM.

For the compound `Cc1ncc(-c2ccnc(Nc3ccc(C(=O)Nc4ccccc4N)s3)n2)n1C(C)C` [Example 11, N-(2-aminophenyl)-5-(4-(1-isopropyl-2-methylimidazol-5-yl)pyrimidin-2-ylamino)thiophene-2-carboxamide], the results for the 50% inhibitory concentration (IC50) on HDAC 1 and on CDK2 were 4.37 µM and 0.012 µM, respectively.

Consider `Cc1ncc(-c2cnnc(Nc3ccc(C(=O)Nc4cc(-c5cccs5)ccc4N)cc3)n2)n1C(C)C` [Example 7, N-(2-amino-5-(thiophen-2-yl)phenyl)-4-(5-(1-isopropyl-2-methylimidazol-5-yl)-1,2,4-triazin-3-ylamino)benzamide], for which the IC50 was 0.03 µM at HDAC 1 and more than 40 µM against CDK2.
